pIC50: −log10 of the molar value.
Key:
Glycine max = test: Inhibition of soybean LOX using linoleic acid as substrate at 0.5 mM preincubated for 10 mins followed by substrate addition measured after 6 mins by spectrophotometric analysis
[1] = Inhibition of soybean LOX using linoleic acid as substrate preincubated for 10 mins followed by substrate addition measured after 6 mins by spectrophotometric analysis; set-up: species or system Glycine max
[2] = target: Urease (Canavalia ensiformis) (UniProt P07374); test: Inhibition of jack beans urease assessed as hydrolysis of urea into ammonia at 0.5 mM preincubated for 10 mins followed by urea addition measured after 10 mins by Berthelot assay
Chain of Urease (Canavalia ensiformis) (P07374 whole entry, looked up): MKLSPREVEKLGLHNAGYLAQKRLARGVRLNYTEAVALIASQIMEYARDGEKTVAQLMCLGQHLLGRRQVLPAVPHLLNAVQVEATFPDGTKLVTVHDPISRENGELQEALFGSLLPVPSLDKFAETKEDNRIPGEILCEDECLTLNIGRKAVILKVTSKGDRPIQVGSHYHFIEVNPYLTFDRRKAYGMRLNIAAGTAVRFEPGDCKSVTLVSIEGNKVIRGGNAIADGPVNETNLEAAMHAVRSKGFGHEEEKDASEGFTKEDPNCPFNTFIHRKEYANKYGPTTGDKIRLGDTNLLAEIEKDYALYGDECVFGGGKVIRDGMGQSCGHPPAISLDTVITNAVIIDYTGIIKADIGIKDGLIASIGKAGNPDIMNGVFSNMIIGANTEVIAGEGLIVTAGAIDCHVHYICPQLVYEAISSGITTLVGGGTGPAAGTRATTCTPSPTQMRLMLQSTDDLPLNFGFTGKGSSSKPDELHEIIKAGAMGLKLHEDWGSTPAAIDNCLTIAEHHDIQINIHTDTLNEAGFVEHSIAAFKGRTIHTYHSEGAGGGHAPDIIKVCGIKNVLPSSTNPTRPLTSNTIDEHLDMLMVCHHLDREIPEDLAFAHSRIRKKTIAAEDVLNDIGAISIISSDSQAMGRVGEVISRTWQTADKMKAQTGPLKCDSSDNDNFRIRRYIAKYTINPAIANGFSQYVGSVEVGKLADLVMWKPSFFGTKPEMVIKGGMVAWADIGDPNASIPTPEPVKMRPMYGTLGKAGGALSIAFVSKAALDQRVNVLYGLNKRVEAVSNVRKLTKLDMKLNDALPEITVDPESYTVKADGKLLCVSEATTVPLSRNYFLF

Urease = Urease (Canavalia ensiformis, UniProt P07374); test: Inhibition of jack beans urease assessed as hydrolysis of urea into ammonia preincubated for 10 mins followed by urea addition measured after 10 mins by Berthelot assay
Chain of Urease (P07374 whole entry): as the sequence (P07374 whole entry, looked up) above

| Structure (SMILES) | inhibition (Glycine max) [%] | pIC50 [1] | inhibition [2] [%] | pIC50 (Urease) |
| --- | --- | --- | --- | --- |
| Fc1ccc(-n2c(-c3c(-c4ccc(Cl)cc4)[nH]c4ccccc34)nc(-c3ccccc3)c2-c2ccccc2)cc1 | 84.5 | 4.05 | 85.6 | 6.36 |
| Brc1ccc2[nH]c(-c3ccccc3)c(-c3nc(-c4ccccc4)c(-c4ccccc4)n3-c3ccccc3)c2c1 | 97.2 | 3.87 |  |  |
| Cc1ccc(-n2c(-c3c(-c4ccccc4)[nH]c4ccc(Br)cc34)nc(-c3ccccc3)c2-c2ccccc2)cc1 | 81.4 | 3.84 |  |  |
| FC(F)(F)c1ccc(-c2[nH]c3ccccc3c2-c2nc(-c3ccccc3)c(-c3ccccc3)n2-c2ccc(Cl)cc2)cc1 | 62.1 | 3.67 | 70.3 | 5.32 |
| Brc1ccc(-c2[nH]c3ccccc3c2-c2nc(-c3ccccc3)c(-c3ccccc3)n2-c2ccccc2)cc1 | 59.3 | 3.71 | 89.4 | 5.32 |
| Cc1ccc(-n2c(-c3c(-c4ccc(C(F)(F)F)cc4)[nH]c4ccccc34)nc(-c3ccccc3)c2-c2ccccc2)cc1 | 90.3 | 4.08 | 79.7 | 6.92 |
| COc1ccc(-n2c(-c3c(-c4ccc(Br)cc4)[nH]c4ccccc34)nc(-c3ccccc3)c2-c2ccccc2)cc1 | 61.7 | 3.69 | 85.2 | 4.54 |
| FC(F)(F)c1ccc(-c2[nH]c3ccccc3c2-c2nc(-c3ccccc3)c(-c3ccccc3)n2-c2ccccc2)cc1 | 86.2 | 3.93 |  |  |
| Clc1ccc(-n2c(-c3c(-c4ccccc4)[nH]c4ccc(Br)cc34)nc(-c3ccccc3)c2-c2ccccc2)cc1 | 83.2 | 4.00 | 87.8 | 5.33 |
| Brc1ccc(-n2c(-c3c(-c4ccccc4)[nH]c4ccc(Br)cc34)nc(-c3ccccc3)c2-c2ccccc2)cc1 | 78.5 | 3.75 | 93.2 | 6.82 |
| COc1ccc(-n2c(-c3c(-c4ccccc4)[nH]c4ccc(Br)cc34)nc(-c3ccccc3)c2-c2ccccc2)cc1 | 57.5 | 3.58 | 88.7 | 5.34 |
| O=c1cc(-c2ccccc2)oc2cc(O)c(O)c(O)c12 [BAICALEIN] | 93.7 | 4.65 |  |  |
| Brc1ccc(-c2[nH]c3ccccc3c2-c2nc(-c3ccccc3)c(-c3ccccc3)n2-c2ccc(Br)cc2)cc1 | 61.1 | 3.76 | 87.8 | 4.95 |
| Fc1ccc(-n2c(-c3c(-c4ccc(C(F)(F)F)cc4)[nH]c4ccccc34)nc(-c3ccccc3)c2-c2ccccc2)cc1 | 80.2 | 3.97 | 85.2 | 6.80 |
| Clc1ccc(-c2[nH]c3ccccc3c2-c2nc(-c3ccccc3)c(-c3ccccc3)n2-c2ccccc2)cc1 | 58.3 | 3.56 | 80.3 | 6.43 |
| Fc1ccc(-n2c(-c3c(-c4ccc(Br)cc4)[nH]c4ccccc34)nc(-c3ccccc3)c2-c2ccccc2)cc1 | 87.8 | 3.79 | 86.7 | 4.92 |
